Reference: PubChem BioAssay AID248 (DTP/NCI, 2004)
Where “and” joins values, the source holds several entries; their conditions need not be identical. Equal values may be shown once. Inconclusive results and toxic doses are left out. Cut-off read from the data, not from the text of the source: active = T/C of 150% or more; inactive = T/C below 125%.

Test system: L1210 leukemia ip in BDF1 mice, survival T/C
Assay: NCI In Vivo Anticancer Drug Screen. Data for tumor model L1210 Leukemia (intraperitoneal) in B6D2F1 (BDF1) mice
Conditions: higher = longer survival
Method in brief: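 Antitumor effect is assessed in tumor-bearing animals. Survival in the compound arm is compared with a vehicle-dosed control arm and expressed as their quotient.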

[1] = endpoint: mean survival time, dose: 100.0 mg/kg/injection, schedule: Q01DX009 (ip), vehicle: saline with Tween-80
[2] = endpoint: mean survival time, dose: 100.0 mg/kg/injection, schedule: Q04DX003 (ip), vehicle: saline with Tween-80
[3] = endpoint: mean survival time, dose: 200.0 mg/kg/injection, schedule: Q01DX009 (ip), vehicle: saline with Tween-80
[4] = endpoint: mean survival time, dose: 200.0 mg/kg/injection, schedule: Q04DX003 (ip), vehicle: saline with Tween-80
[5] = endpoint: mean survival time, dose: 400.0 mg/kg/injection, schedule: Q01DX009 (ip), vehicle: saline with Tween-80
[6] = endpoint: mean survival time, dose: 400.0 mg/kg/injection, schedule: Q04DX003 (ip), vehicle: saline with Tween-80
[7] = endpoint: mean survival time, dose: 25.0 mg/kg/injection, schedule: Q04DX003 (ip), vehicle: saline
[8] = endpoint: mean survival time, dose: 50.0 mg/kg/injection, schedule: Q01DX009 (ip), vehicle: saline
[9] = endpoint: mean survival time, dose: 50.0 mg/kg/injection, schedule: Q04DX003 (ip), vehicle: saline
[10] = endpoint: mean survival time, dose: 100.0 mg/kg/injection, schedule: Q04DX003 (ip), vehicle: saline
[11] = endpoint: mean survival time, dose: 100.0 mg/kg/injection, schedule: Q01DX009 (ip), vehicle: Klucel (hydroxypropylcellulose) (HPC)
[12] = endpoint: mean survival time, dose: 100.0 mg/kg/injection, schedule: Q04DX003 (ip), vehicle: Klucel (hydroxypropylcellulose) (HPC)
[13] = endpoint: mean survival time, dose: 200.0 mg/kg/injection, schedule: Q01DX009 (ip), vehicle: Klucel (hydroxypropylcellulose) (HPC)
[14] = endpoint: mean survival time, dose: 200.0 mg/kg/injection, schedule: Q04DX003 (ip), vehicle: Klucel (hydroxypropylcellulose) (HPC)
[15] = endpoint: mean survival time, dose: 400.0 mg/kg/injection, schedule: Q04DX003 (ip), vehicle: Klucel (hydroxypropylcellulose) (HPC)
[16] = endpoint: mean survival time, dose: 200.0 mg/kg/injection, schedule: Q04DX003 (ip), vehicle: saline
[17] = endpoint: mean survival time, dose: 400.0 mg/kg/injection, schedule: Q04DX003 (ip), vehicle: saline
[18] = endpoint: mean survival time, dose: 50.0 mg/kg/injection, schedule: Q01DX009 (ip), vehicle: saline with Tween-80
[19] = endpoint: mean survival time, dose: 100.0 mg/kg/injection, schedule: Q01DX001 (ip), vehicle: carboxymethylcellulose (CMC)
[20] = endpoint: mean survival time, dose: 200.0 mg/kg/injection, schedule: Q01DX001 (ip), vehicle: carboxymethylcellulose (CMC)
[21] = endpoint: mean survival time, dose: 400.0 mg/kg/injection, schedule: Q01DX001 (ip), vehicle: carboxymethylcellulose (CMC)
[22] = endpoint: mean survival time, dose: 100.0 mg/kg/injection, schedule: Q01DX009 (ip), vehicle: saline
[23] = endpoint: mean survival time, dose: 100.0 mg/kg/injection, schedule: Q01DX001 (ip), vehicle: other
[24] = endpoint: mean survival time, dose: 50.0 mg/kg/injection, schedule: Q01DX009 (ip), vehicle: Klucel (hydroxypropylcellulose) (HPC)

Measured: T/C

CC(=O)OC(c1ccccc1)C(C)C(OC(C)=O)(C(F)(F)F)C(F)(F)F (configuration not stated)
inactive: [1] 102 % of control | [2] 102 % of control | [3] 98 % of control | [4] 94 % of control | [5] 100 % of control | [6] 93 % of control

CCN(CC)CCCC(C)Nc1c2ccc(Cl)cc2nc2cc(Cl)ccc12 (configuration not stated)
inactive: endpoint: mean survival time, dose: 25.0 mg/kg/injection, schedule: Q01DX009 (ip), vehicle: saline 92 % of control | [7] 100 % of control | [8] 95 % of control | [9] 98 % of control | [10] 93 % of control and 86 % of control

CC(C)C1CCC(C(=O)O)CC1 (configuration not stated)
inactive: [11] 102 % of control | [12] 96 % of control | [13] 95 % of control | [14] 100 % of control | endpoint: mean survival time, dose: 400.0 mg/kg/injection, schedule: Q01DX009 (ip), vehicle: Klucel (hydroxypropylcellulose) (HPC) 97 % of control | [15] 103 % of control

CC1=NNC(C)(C)C1
inactive: [10] 91 % of control | [16] 93 % of control | [17] 98 % of control

CC(=O)NC1CON(C(C)=O)C1=O (configuration not stated)
inactive: [12] 97 % of control | [14] 103 % of control | [15] 103 % of control

CN(C)c1ccc(CN2CCCN(Cc3ccc(N(C)C)cc3)C2c2ccc(N(CCCl)CCCl)cc2)cc1
inactive: [12] 102 % of control | [14] 104 % of control | [15] 100 % of control

O=C(O)C1C(=O)OC2CCCCC21 (configuration not stated)
inactive: [18] 88 % of control | [1] 88 % of control | [3] 95 % of control

COP(=O)(OC)Oc1c(Cl)c(OP(=O)(OC)OC)c(Cl)c(OP(=O)(OC)OC)c1Cl
inactive: endpoint: mean survival time, dose: 100.0 mg/kg/injection, schedule: Q04DX002 (ip), vehicle: Klucel (hydroxypropylcellulose) (HPC) 115 % of control | endpoint: mean survival time, dose: 200.0 mg/kg/injection, schedule: Q04DX002 (ip), vehicle: Klucel (hydroxypropylcellulose) (HPC) 100 % of control | endpoint: mean survival time, dose: 400.0 mg/kg/injection, schedule: Q04DX002 (ip), vehicle: Klucel (hydroxypropylcellulose) (HPC) 86 % of control

COC(=O)c1ccc2cc(OC)cc([N+](=O)[O-])c2n1
inactive: endpoint: mean survival time, dose: 50.0 mg/kg/injection, schedule: Q01DX001 (ip), vehicle: carboxymethylcellulose (CMC) 87 % of control | [19] 93 % of control | [20] 102 % of control | [21] 93 % of control

NC(=O)NNC(N)=O
inactive: [8] 91 % of control | [22] 98 % of control | [10] 102 % of control | [16] 101 % of control

COC(=O)N/N=C/Cc1ccccc1
inactive: endpoint: mean survival time, dose: 25.0 mg/kg/injection, schedule: Q01DX009 (ip), vehicle: saline with Tween-80 91 % of control | [18] 90 % of control | [1] 102 % of control

O=C1OC2(CCCCC2)c2ccccc21
inactive: [12] 105 % of control | [14] 95 % of control | [15] 105 % of control

N#CC12CCCCC(=O)N1C=Cc1ccccc12 (configuration not stated)
inactive: endpoint: mean survival time, dose: 100.0 mg/kg/injection, schedule: Q01DX001 (ip), vehicle: saline 96 % of control | endpoint: mean survival time, dose: 200.0 mg/kg/injection, schedule: Q01DX001 (ip), vehicle: saline 96 % of control | endpoint: mean survival time, dose: 400.0 mg/kg/injection, schedule: Q01DX001 (ip), vehicle: saline 93 % of control

COc1ccc(CNCCNCCNCc2ccc(OC)cc2)cc1
inactive: [1] 107 % of control | [10] 104 % of control | [3] 109 % of control | [16] 102 % of control | [5] 102 % of control | [17] 104 % of control

NC(N)=NC(N)=Nc1ccc(N=C(N)N=C(N)N)cc1
inactive: [23] 104 % of control

CC(NC(=O)CNC(=O)CNC(=O)OCc1ccccc1)C(=O)O (configuration not stated)
inactive: [12] 97 % of control | [14] 100 % of control | [15] 91 % of control

O=C(Nc1nccs1)c1cc2ccccc2cc1O
inactive: endpoint: mean survival time, dose: 100.0 mg/kg/injection, schedule: Q04DX002 (ip), vehicle: saline with Tween-80 97 % of control | endpoint: mean survival time, dose: 200.0 mg/kg/injection, schedule: Q04DX002 (ip), vehicle: saline with Tween-80 87 % of control | endpoint: mean survival time, dose: 400.0 mg/kg/injection, schedule: Q04DX002 (ip), vehicle: saline with Tween-80 87 % of control

C(=N\n1cnnc1)/c1ccccc1/C=N/n1cnnc1
inactive: [1] 116 % of control | [2] 103 % of control | [3] 96 % of control | [4] 100 % of control | [5] 89 % of control | [6] 89 % of control

CCCCNC(=O)OC/C=C/CC(Cl)(Cl)Cl
inactive: endpoint: mean survival time, dose: 100.0 mg/kg/injection, schedule: Q01DX009 (sc), vehicle: olive oil, sesame oil, peanut oil 103 % of control | endpoint: mean survival time, dose: 100.0 mg/kg/injection, schedule: Q04DX003 (sc), vehicle: olive oil, sesame oil, peanut oil 95 % of control | endpoint: mean survival time, dose: 200.0 mg/kg/injection, schedule: Q01DX009 (sc), vehicle: olive oil, sesame oil, peanut oil 101 % of control | endpoint: mean survival time, dose: 200.0 mg/kg/injection, schedule: Q04DX003 (sc), vehicle: olive oil, sesame oil, peanut oil 108 % of control | endpoint: mean survival time, dose: 400.0 mg/kg/injection, schedule: Q01DX009 (sc), vehicle: olive oil, sesame oil, peanut oil 101 % of control | endpoint: mean survival time, dose: 400.0 mg/kg/injection, schedule: Q04DX003 (sc), vehicle: olive oil, sesame oil, peanut oil 94 % of control

C=C(Br)C(C)(C)C
inactive: [8] 101 % of control | [22] 101 % of control | endpoint: mean survival time, dose: 200.0 mg/kg/injection, schedule: Q01DX009 (ip), vehicle: saline 101 % of control

O=C1C(Cl)=C(c2ccccc2)C(=O)C(Cl)=C1c1ccccc1
inactive: [23] 93 % of control | endpoint: mean survival time, dose: 200.0 mg/kg/injection, schedule: Q01DX001 (ip), vehicle: other 88 % of control

CCCCCCCCCCCCCCCCNS(=O)(=O)c1ccc(NN)cc1
inactive: [24] 98 % of control | [11] 99 % of control | [12] 97 % of control | [13] 91 % of control | [14] 95 % of control

NC(Cc1cnc(N=Nc2ccc(S(=O)(=O)N(CCCl)CCCl)cc2)[nH]1)C(=O)O (configuration not stated)
inactive: [24] 93 % of control | [11] 90 % of control | [13] 97 % of control

COC(=O)c1ccccc1N=NN(C)C
inactive: [19] 102 % of control | [20] 102 % of control | endpoint: median survival time, dose: 65.0 mg/kg/injection, schedule: Q01DX001 (ip), vehicle: steriod suspending solution 110 % of control | endpoint: median survival time, dose: 108.0 mg/kg/injection, schedule: Q01DX001 (ip), vehicle: steriod suspending solution 105 % of control | endpoint: median survival time, dose: 180.0 mg/kg/injection, schedule: Q01DX001 (ip), vehicle: steriod suspending solution 120 % of control | endpoint: median survival time, dose: 300.0 mg/kg/injection, schedule: Q01DX001 (ip), vehicle: steriod suspending solution 105 % of control

Cc1ccc(C(=O)c2ccccc2)cc1
inactive: [12] 97 % of control | [14] 104 % of control | [15] 92 % of control

O=C(O)/C=C/C(=O)OCCBr
inactive: [7] 92 % of control | [18] 100 % of control | [9] 95 % of control | [1] 115 % of control | [10] 90 % of control | [3] 97 % of control

CCCCCCCCCCCC(=O)SCCSC(=O)CCCCCCCCCCC
inactive: endpoint: mean survival time, dose: 100.0 mg/kg/injection, schedule: Q04DX002 (ip), vehicle: other 94 % of control and 104 % of control | endpoint: mean survival time, dose: 100.0 mg/kg/injection, schedule: Q04DX003 (ip), vehicle: other 86 % of control and 89 % of control | endpoint: mean survival time, dose: 200.0 mg/kg/injection, schedule: Q04DX002 (ip), vehicle: other 113 % of control and 90 % of control | endpoint: mean survival time, dose: 200.0 mg/kg/injection, schedule: Q04DX003 (ip), vehicle: other 96 % of control and 89 % of control | endpoint: mean survival time, dose: 400.0 mg/kg/injection, schedule: Q04DX002 (ip), vehicle: other 103 % of control and 109 % of control | endpoint: mean survival time, dose: 400.0 mg/kg/injection, schedule: Q04DX003 (ip), vehicle: other 89 % of control and 92 % of control

CSc1nc(N)c2n[nH]nc2n1
inactive: [2] 103 % of control | [4] 95 % of control | [6] 95 % of control

O=C(O)CNCc1ccccc1
inactive: [10] 102 % of control | [16] 96 % of control | [17] 96 % of control

Brc1cc(Br)c2[nH]c(-c3ccccc3)cc2c1
inactive: [19] 95 % of control | [20] 90 % of control | [21] 88 % of control
